One assay has as its target T1, human IKK-β (Homo sapiens, UniProt O14920).
T1 construct: A cDNA fragment encoding human IKK-β open reading frame was generated by PCR; His; made in house; host or cells: Sf21 insect cells (baculovirus); the GST-IκBα substrate was made in E. coli
T1 sequence (O14920 1-756): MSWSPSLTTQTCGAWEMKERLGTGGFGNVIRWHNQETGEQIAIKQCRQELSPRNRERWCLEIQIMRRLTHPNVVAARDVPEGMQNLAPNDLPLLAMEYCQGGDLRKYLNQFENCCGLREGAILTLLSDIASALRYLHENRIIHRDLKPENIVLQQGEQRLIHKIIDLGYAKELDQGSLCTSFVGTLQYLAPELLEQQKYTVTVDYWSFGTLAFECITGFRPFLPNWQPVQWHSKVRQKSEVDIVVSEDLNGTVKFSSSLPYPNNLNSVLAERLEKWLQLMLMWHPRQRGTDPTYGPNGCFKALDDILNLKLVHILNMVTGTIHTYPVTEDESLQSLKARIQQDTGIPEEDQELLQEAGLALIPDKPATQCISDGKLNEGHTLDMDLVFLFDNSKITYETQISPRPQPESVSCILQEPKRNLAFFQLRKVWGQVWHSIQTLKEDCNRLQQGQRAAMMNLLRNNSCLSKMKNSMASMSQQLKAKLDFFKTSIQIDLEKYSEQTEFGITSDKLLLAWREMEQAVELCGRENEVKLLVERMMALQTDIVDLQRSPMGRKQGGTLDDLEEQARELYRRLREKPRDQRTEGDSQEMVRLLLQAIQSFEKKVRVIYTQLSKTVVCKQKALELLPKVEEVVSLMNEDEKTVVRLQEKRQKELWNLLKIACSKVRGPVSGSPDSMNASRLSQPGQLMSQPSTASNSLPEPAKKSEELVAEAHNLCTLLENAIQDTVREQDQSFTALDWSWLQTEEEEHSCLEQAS
Briefly: IKK-β kinase inhibitory assay. The note with it: compounds of about 40 to 90% purity, read-out: In vitro activity grade (invitro, IC50). In kind it is biochemical. The text has this:
IKK-β Kinase Inhibitory Assay.
• (1) Preparation of IKK-β Kinase Protein. • A cDNA fragment encoding human IKK-β open reading frame was generated by PCR with the use of a pair of primers designed from the published sequence (Woronicz J D et al. (1997) Science 278,866-869). A template was obtained from Quickclone cDNA (Clontech) using Elongase™ Amplification kit (Life Technologies). The DNA fragments generated by PCR were gel-purified and subcloned into pBluescript. The cDNA fragment cloned in pBluescript was inserted into pcDNA3.1/His C KpnI/NotI, and transferred into pVL1393 SmaI/XbaI (Pharmingen) to construct a baculovirus transfer vector. Then the vector, together with the linearized baculovirus (BaculoGold™, Pharmingen) was used to transfect Sf21 cells (Invitrogen, San Diego, Calif.). Generated recombinant baculovirus was cloned and amplified in Sf21 cells, grown in TNM-FH insect cell medium (Life Technologies, Inc.) supplemented with 10% FCS, […] Gentamycin, 0.1% Pluronic F-68 (Life Technologies, Inc.) as suspension culture (200 ml in 1 L Erlenmeyer flask; 27° C.; 130 rpm). Sf21 cells were infected with this amplified virus with a multiplicity of infection of 5 following standard protocols (Crossen R, Gruenwald S (1997) Baculovirus Expression Vector System Instruction Manual, Pharmingen Corporation) and harvested 48 hrs. later. The cells were lysed to obtain the produced chimeric protein of IKK-β kinase fused by histidine (His-tagged IKK-beta). • (2) The Preparation of Purified GST-IκBα Fusion Proteins • An expression vector containing the nucleotide sequence encoding fusion protein of GST with amino acid residues 1 to 54 of IκBα under the control of an IPTG-inducible promoter was constructed. The expression vector was introduced in E. coli and the transformant was cultured and lysed to obtain a GST-IκBα fusion protein. Then the resulting GST-IκBα fusion protein was purified and biotinated for kinase assay. • (3) The Measurement of IKK-β Kinase Activity • The 96-well format kinase assay of IKK-β was performed to test the inhibitory activity of the compounds of the present invention. First, 5 μl of a test compound was put in the presence of 2.5% dimethyl sulfoxide (DMSO) in each well in a U-bottomed 96-well plate (Falcon). For control wells of background (BG) and total phosphorylation (TP), 5 μl of 2.5% DMSO was put. Recombinant IKK-β (final 0.6 μg/ml) and bio-GST-IκBα (1-54) (final 0.2 μM) were diluted in 25 μl of 2×kinase buffer β (40 mM Tris-HCl, pH 7.6, 40 mM MgCl2, 40 mM β-glycerophosphate, 40 mM p-nitrophenyl-phosphate, 2 mM EDTA, 40 mM creatine phosphate, 2 mM DTT, 2 mM Na3VO4, 0.2 mg/ml BSA and 0.8 mM phenylmethylsulfonyl fluoride) and transferred to the 96-well plate. Bio-GST-IκBα (1-54) in 25 μl of 2×kinase buffer β without IKK-β was transferred to BG wells. Then 20 μl of 12.5 μM ATP, 62.5 μCi/ml [γ-^33P] ATP (Amersham Pharmacia Biotech) was added and the resulting mixture was incubated for 2 hrs. at room temperature. The kinase reactions were terminated by the addition of 150 μl of termination buffer (100 mM EDTA, 1 mg/ml BSA, 0.2 mg NaN3). One handred and fifty μl of the sample was transferred to a streptavidin-coated, white MTP (Steffens Biotechniche Analysen GmbH #08114E14. FWD) to capture the biotinylated substrates. After 1 hr. of incubation, non-bound radioactivity was eliminated by washing the wells five times with 300 μl of washing buffer including 0.9% NaCl and 0.1% (w/v) Tween-20 with the use of a MW-96 plate washer (BioTec). The bound radioactivity was determined after the addition of 170 μl MicroScint-PS scintillation cocktail (Packard) using a TopCount scintillation counter. Syk Tyrosine Kinase Inhibitory Assay for Selectivity. • (1) Preparation of Syk Protein • A cDNA fragment encoding human Syk openreading frame was cloned from total RNA of human Burkitt's lymphoma B cell lines, Raji (American Type Culture Collection), with the use of RT-PCR method. […]

Assay [1] has as its system RANTES production in response to TNF-α from A549 cells. Briefly: RANTES production in response to TNF-α from A549 cells. In kind it is cell-based, human. The note with it: 100 ng/ml TNF-α, compounds of about 40 to 90% purity, read-out: Cellular activity grade (A549, IC50).

This is an account of results in patent US7410986B2, “4-6-diphenyl pyridine derivatives as antiinflammatory agents” (Bayer Aktiengesellschaft, priority 2000, dated 2008).

Where a name gives a salt, the structure may show the parent alone. Read-outs that look alike come from different tables or passages of the source. A value given as a limit tells only on which side of the number the result lay.

Turning to `N#Cc1c(-c2cccc(NC(=O)C3CCC(=O)O3)c2)cc(-c2ccccc2O)nc1N` (centres unmarked) [Example 1-1, N-{3-[2-amino-3-cyano-6-(2-hydroxyphenyl)-4-pyridinyl]phenyl}-5-oxotetrahydro-2-furancarboxamide], the IC50 at human IKK-β lay within 0.5 to 2 µM; in assay [1] (24 hrs), 1 to 10 µM.
Turning to `N#Cc1c(-c2cccc(NC(=O)C(O)CCC(=O)O)c2)cc(-c2ccccc2O)nc1N` (centres unmarked) [Example 1-2, Sodium 5-({3-[2-amino-3-cyano-6-(2-hydroxyphenyl)-4-pyridinyl]phenyl}amino)-4-hydroxy-5-oxopentanoate], the IC50 on human IKK-β was 0.5 to 2 µM; in assay [1] (Homo sapiens, A549, 24 h), over 10 µM.
In the case of `N#Cc1c(-c2cccc(NC(=O)C3CCC(=O)O3)c2)cc(-c2ccccc2O)nc1N` (centres unmarked) [Example 1-03], the IC50 was 0.5 to 2 µM at human IKK-β and over 10 µM in assay [1] (24 hrs).
Take `COCC(=O)Nc1cccc(-c2cc(-c3ccccc3O)nc(N)c2C#N)c1` [Example 1-04]: the IC50 is 0.5 to 2 µM at human IKK-β and over 10 µM in assay [1] (Homo sapiens, A549, 24 h).
The like results for `N#Cc1c(-c2cccc(NC(=O)C3CCC(=O)N3)c2)cc(-c2ccccc2O)nc1N` (centres unmarked) [Example 1-05] were, in that order, 2 to 10 µM and over 10 µM.
On the same counts, the results for `CS(=O)(=O)Nc1cccc(-c2cc(-c3ccccc3O)nc(N)c2C#N)c1` [Example 1-06] are 2 to 10 µM and 1 to 10 µM.
On the same counts, the results for `N#Cc1c(-c2cccc(N)c2)cc(-c2ccccc2O)nc1N` [Example 1-07] are 2 to 10 µM and over 10 µM.
As to `N#Cc1c(-c2cccc(N)c2)cc(-c2ccccc2O)nc1N` [Example 1-08], the IC50 (at human IKK-β; in assay [1] (24 hrs)) was over 10 µM each time.
`N#Cc1c(-c2cccc(NC(=O)C[C@H](N)C(=O)O)c2)cc(-c2ccccc2O)nc1N` [Example 1-09]: the IC50 at human IKK-β was under 0.5 µM; in assay [1] (Homo sapiens, A549, 24 h), over 10 µM.
As to `N#Cc1c(-c2ccc(NC(=O)C(O)CCC(=O)O)cc2)cc(-c2ccccc2O)nc1N` (centres unmarked) [Example 1-10], the IC50 is under 0.5 µM on human IKK-β and over 10 µM in assay [1] (Homo sapiens, A549, 24 h).
On the same counts, the results for `Cc1ccc(O)c(-c2cc(-c3cccc(NC(=O)C4CCC(=O)O4)c3)c(C#N)c(N)n2)c1` (centres unmarked) [Example 1-11] are over 10 µM and over 10 µM.
The like results for `COc1cccc(O)c1-c1cc(-c2cccc(NC(=O)C3CCC(=O)O3)c2)c(C#N)c(N)n1` (centres unmarked) [Example 1-12] were, in that order, 0.5 to 2 µM and over 10 µM.
The like results for `COc1cccc(O)c1-c1cc(-c2cccc(NC(=O)C(O)CCC(=O)O)c2)c(C#N)c(N)n1` (centres unmarked) [Example 1-13] were, in that order, 0.5 to 2 µM and over 10 µM.
With `CC(=O)Nc1cccc(-c2cc(-c3ccccc3O)nc(N)c2C#N)c1` [Example 1-14], the IC50 at human IKK-β was over 10 µM; in assay [1] (Homo sapiens, A549, 24 h) it was over 10 µM.
With `N#Cc1c(-c2ccc(Cl)c(NC(=O)C(O)CCC(=O)O)c2)cc(-c2ccccc2O)nc1N` (centres unmarked) [Example 1-15], the IC50 on human IKK-β is under 0.5 µM; in assay [1] (Homo sapiens, A549, 24 h) it was over 10 µM.
For `N#Cc1c(-c2cccc(NC(=O)C(O)CCC(=O)O)c2)cc(-c2cc(F)ccc2O)nc1N` (centres unmarked) [Example 1-16], the IC50 at human IKK-β was 0.5 to 2 µM; in assay [1] (Homo sapiens, A549, 24 h), over 10 µM.
The like results for `N#Cc1c(-c2cccc(NC(=O)C(O)CCC(=O)O)c2)cc(-c2cc(Cl)ccc2O)nc1N` (centres unmarked) [Example 1-17] were, in that order, 2 to 10 µM and over 10 µM.
As to `COc1ccc(O)c(-c2cc(-c3cccc(NC(=O)C(O)CCC(=O)O)c3)c(C#N)c(N)n2)c1` (centres unmarked) [Example 1-18], the IC50 is 2 to 10 µM on human IKK-β and over 10 µM in assay [1] (Homo sapiens, A549, 24 h).
The like results for `N#Cc1c(-c2cccc(NC(=O)CCCC(=O)O)c2)cc(-c2ccccc2O)nc1N` [Example 1-19] were, in that order, 0.5 to 2 µM and over 10 µM.
The like results for `N#Cc1c(-c2cccc(NC(=O)C3CCC(=O)O3)c2)cc(-c2ncccc2O)nc1N` (centres unmarked) [Example 1-20] were, in that order, 2 to 10 µM and over 10 µM.
The like results for `N#Cc1c(-c2cccc(N)c2)cc(-c2ncccc2O)nc1N` [Example 1-21] were, in that order, 2 to 10 µM and 1 to 10 µM.
In the case of `N#Cc1c(-c2cccc(NC(=O)C(O)CCC(=O)O)c2)cc(-c2ncccc2O)nc1N` (centres unmarked) [Example 1-22], the IC50 is 0.5 to 2 µM on human IKK-β and over 10 µM in assay [1] (Homo sapiens, A549, 24 h).
On the same counts, the results for `N#Cc1c(-c2cccc(O)c2)cc(-c2ccccc2O)nc1N` [Example 1-23] are under 0.5 µM and 1 to 10 µM.
For the molecule `Nc1cc(-c2cccc(NC(=O)CNCC3CC3)c2)cc(-c2ccccc2O)n1` [Example 4-39], the IC50 on human IKK-β lay within 2 to 10 µM.
Still for that read-out and setting: the value for `CCNc1ccc(-c2cc(-c3c(O)cccc3OCC3CC3)nc(N)c2CO)cc1O` [Example 8-1, 2-[6-amino-4-[4-(ethylamino)-3-hydroxyphenyl]-5-(hydroxymethyl)-2-pyridinyl]-3-(cycloproylmethoxy)phenol hydrochloride] was 0.5 to 2 µM; that for `CCn1c(=O)oc2cc(-c3cc(-c4c(O)cccc4OCC4CC4)nc4c3COC(=O)N4)ccc21` [Example 8-2, 7-[2-(cyclopropylmethoxy)-6-hydroxyphenyl-5-(3-ethyl-2-oxo-2,3-dihydro-1,3-benzoxazol-6-yl)-1,4-dihydro-2H-pyrido[2,3-d][1,3]oxazin-2-one hydrochloride] was 2 to 10 µM.
Take `CC(=O)Nc1ccc(-c2cc(-c3c(O)cccc3OCC3CC3)nc(N)c2CO)cc1O` [Example 8-3, N-{4-[2-amino-6-[2-(cyclopropylmethoxy)-6-hydroxyphenyl]-3-(hydroxymethyl)-4-pyridinyl]-2-hydroxyphenyl}acetamide hydrochloride]: the IC50 at human IKK-β was under 0.5 µM.

For orientation: IC50 means the midpoint of a concentration-inhibition curve.
